Patent US20070213340A1, “Farnesyl protein transferase inhibitors” (priority 2006, published 2007)

Each compound was assayed against farnesyl protein transferase (Homo sapiens, UniProt P49354+P49356) (assay: FPT IC50 (inhibition of farnesyl protein transferase, in vitro enzyme assay)). Details: procedure of WO 95/10516.
Format: biochemical
Procedure: FPT IC50 (inhibition of farnesyl protein transferase, in vitro enzyme assay) was determined, and COS Cell IC50 (Cell-Based Assay) could be determined following the assay procedures described in WO 95/10516, published Apr. 20, 1995. GGPT IC50 (inhibition of geranylgeranyl protein transferase, in vitro enzyme assay), Cell Mat Assay, and anti-tumor activity (in vivo anti-tumor studies) could be determined by the assay procedures described in WO 95/10516. The disclosure of WO 95/10516 is incorporated herein by reference thereto.
With `CC(C)(C)OC(=O)N1CCN(C2c3ccc(Cl)cc3CCc3cccnc32)[C@@H](C(=O)NCCCC(=O)O)C1` (single isomer, unassigned) [compound 9, 3R-(3-Carboxy-propylcarbamoyl)-4-(8-chloro-6,11-dihydro-5H-benzo[5,6]cyclohepta[1,2-b]pyridin-11-yl)-piperazine-1-carboxylic acid tert-butyl ester] the IC50 was 6.3 nM. For `CC(C)(C)OC(=O)N1CCN(C2c3ccc(Cl)cc3CCc3cccnc32)[C@@H](C(=O)NCCCC(=O)O)C1` (single isomer, unassigned) [compound 8, 3R-(3-Carboxy-propylcarbamoyl)-4-(8-chloro-6,11-dihydro-5H-benzo[5,6]cyclohepta[1,2-b]pyridin-11-yl)-piperazine-1-carboxylic acid tert-butyl ester], the IC50 was 5.5 nM. Compound `CCOC(=O)CCCNC(=O)[C@H]1CN(C(=O)OC(C)(C)C)CCN1C1c2ccc(Cl)cc2CCc2cccnc21` (single isomer, unassigned) [compound 6, 4-(8-Chloro-6,11-dihydro-5H-benzo[5,6]cyclohepta[1,2-b]pyridin-11-yl)-3R-(3-ethoxycarbonyl-propylcarbamoyl)-piperazine-1-carboxylic acid tert-butyl ester] has an IC50 of 5.2 nM. In the case of `CCOC(=O)CCCNC(=O)[C@H]1CN(C(=O)OC(C)(C)C)CCN1C1c2ccc(Cl)cc2CCc2cccnc21` (single isomer, unassigned) [compound 7, 4-(8-Chloro-6,11-dihydro-5H-benzo[5,6]cyclohepta[1,2-b]pyridin-11-yl)-3R-(3-ethoxycarbonyl-propylcarbamoyl)-piperazine-1-carboxylic acid tert-butyl ester], the IC50 is reported as 5.5 nM. `CC(C)(C)OC(=O)N1CCN(C2c3ccc(Cl)cc3CCc3cccnc32)[C@@H](C(=O)NCCCn2ccnc2)C1` (stereo partly drawn) [Compound 12, 4-(8-Chloro-6,11-dihydro-5H-benzo[5,6]cyclohepta[1,2-b]pyridin-11-yl)-3R-(3-imidazol-1-yl-propylcarbamoyl)-piperazine-1-carboxylic acid tert-butyl ester] was tested, and the IC50 was 1.2 nM.
